PubChem BioAssay (NCI)
“And” between values parts separate entries of the source, which are not always exact repeats. Equal values may be shown once.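 Following 48 hours of exposure in 96-well plates, responses at five concentrations were used to interpolate endpoints linearly. GI50 = concentration required for 50% inhibition of growth. The concentration for full growth arrest is given as TGI.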

Columns and labels:
Assay in all cases: inhibition of tumour cell growth, NCI panel, 48 h
CAKI-1 renal = tested on: CAKI-1 renal
OVCAR-5 ovarian = tested on: OVCAR-5 ovarian
MDA-MB-231 breast = tested on: MDA-MB-231 breast
IGROV1 ovarian = tested on: IGROV1 ovarian
HOP-92 NSCLC = tested on: HOP-92 NSCLC
NCI-H226 lung = tested on: NCI-H226 lung
OVCAR-8 ovarian = tested on: OVCAR-8 ovarian
UO-31 renal = tested on: UO-31 renal
SF-268 CNS = tested on: SF-268 CNS
OVCAR-3 ovarian = tested on: OVCAR-3 ovarian

SMILES | GI50 (CAKI-1 renal) | TGI (CAKI-1 renal) | GI50 (OVCAR-5 ovarian) | TGI (OVCAR-5 ovarian) | GI50 (MDA-MB-231 breast) | TGI (MDA-MB-231 breast) | GI50 (IGROV1 ovarian) | TGI (IGROV1 ovarian) | GI50 (HOP-92 NSCLC) | TGI (HOP-92 NSCLC) | GI50 (NCI-H226 lung) | TGI (NCI-H226 lung) | GI50 (OVCAR-8 ovarian) | TGI (OVCAR-8 ovarian) | GI50 (UO-31 renal) | TGI (UO-31 renal) | GI50 (SF-268 CNS) | TGI (SF-268 CNS) | GI50 (OVCAR-3 ovarian) | TGI (OVCAR-3 ovarian)
O=C(Nc1ccccc1O)c1ccc(NS(=O)(=O)c2cccc3cccnc23)cc1 | 0.998 µM | 4.8 µM | 0.744 µM | > 12.7 µM | 2.17 µM | 7.72 µM | 3.06 µM | 9.95 µM | 0.691 µM | 3.22 µM | 2.36 µM | 7.27 µM | 0.665 µM | 7.25 µM | 0.73 µM | 4.14 µM | 1.54 µM | 8.18 µM | 1.42 µM | 5.61 µM
O=C1c2ccccc2C(=O)c2sc(Nc3ccccc3Cl)nc21 |  | 18.4 µM |  | 41 µM |  | 13.7 µM |  | 28.3 µM |  | 27.9 µM |  | 28.6 µM |  | 20.3 µM |  | 24.4 µM |  | 23.7 µM |  | 25.8 µM
O=C(/C=C/C12c3ccccc3C(c3ccccc31)C1C(=O)NC(=O)C12)c1ccc(Cl)cc1 (configuration not stated) | 1.24 µM | 2.52 µM | 1.58 µM | 3.35 µM | 1.88 µM | 4.3 µM | 1.67 µM | 3.4 µM | 1.32 µM | 2.86 µM | 1.92 µM | 5 µM | 1.13 µM | 2.66 µM | 1.28 µM | 2.56 µM | 1.99 µM | 5.31 µM | 1.63 µM | 3.26 µM
O=C(c1ccccc1)n1c(-c2ccccc2)cs/c1=N\S(=O)(=O)c1ccc(N2N=C3c4ccccc4CC3C2c2cccs2)cc1 (configuration not stated) | 38 µM | > 100 µM | 34.3 µM | > 100 µM | 41.3 µM | > 100 µM | > 100 µM | > 100 µM | > 100 µM | > 100 µM | 30.1 µM | 85.2 µM | 42.9 µM | > 100 µM | 98.1 µM | > 100 µM | > 100 µM | > 100 µM | 55.2 µM | > 100 µM
NNC(=O)c1ccc(OCc2nc3ccccc3[nH]2)cc1 |  | > 100 µM |  | > 100 µM |  | > 100 µM |  | > 100 µM |  | > 100 µM |  | > 100 µM |  | > 100 µM |  | > 100 µM |  | > 100 µM |  | > 100 µM
COc1cc(NCCN=C(N)NC(N)=NC(C)C)c2ncccc2c1 | > 100 µM | > 100 µM | 11.2 µM | 39.3 µM | 3.17 µM | 21.4 µM | 1.37 µM | > 24.8 µM | 3.59 µM | 31.6 µM | 39.7 µM | > 100 µM | 22.6 µM | > 100 µM | > 100 µM | > 100 µM | 3.98 µM | > 100 µM | 1.06 µM | 23.1 µM
CN1CCN(CCOc2cc(OC3CCOCC3)c3c(Nc4c(Cl)ccc5c4OCO5)ncnc3c2)CC1 | 0.571 µM and 0.644 µM | 10.5 µM and > 10 µM | 1.13 µM and 1.35 µM | 23.9 µM and > 10 µM | 6.95 µM and 8.97 µM | 24.1 µM and > 10 µM | 0.244 µM and 0.204 µM | 2.72 µM and 3.05 µM | 0.679 µM and 0.139 µM | 11.4 µM and 5.64 µM | 15.7 µM and > 10 µM | 38.9 µM and > 10 µM | 8.55 µM and 8.64 µM | 34 µM and > 10 µM | 0.42 µM and 0.373 µM | 14.5 µM and > 10 µM | 4.72 µM and > 10 µM | 33.8 µM and > 10 µM | 3.7 µM and 5.55 µM | 22.2 µM and > 10 µM
Nc1nc(N)c2cc(Sc3cccc(C(F)(F)F)c3)ccc2n1 |  | 16.7 µM |  | 16.3 µM |  | 7.14 µM |  | 15.6 µM |  | 9.54 µM | 2.34 µM | 8.15 µM | 0.713 µM | 4.55 µM |  | 9.84 µM |  | 19 µM |  | 13.6 µM
Cc1ccc(-c2nc(-c3cn(C)c4ncccc34)cs2)cc1 | 2.27 µM | 15.2 µM | 7.78 µM | 26.5 µM | 4.88 µM | 21.5 µM | 7.26 µM | 32.2 µM | 4.73 µM | 23.8 µM | 4.35 µM | 24.7 µM | 8.99 µM | 38.9 µM | 8.96 µM | 40.5 µM | 7.83 µM | 39.2 µM | 3.23 µM | 11.3 µM
C[C@@H]1COCCN1c1cc(C2([S@@](C)(=N)=O)CC2)nc(-c2ccnc3[nH]ccc23)n1 | 11.7 µM | > 79.2 µM | 5.11 µM | > 100 µM | 8.18 µM | > 100 µM | 5.11 µM | > 71.1 µM | 1.56 µM | 15.4 µM | 4.26 µM | 98.7 µM | 10.9 µM | > 100 µM | 4 µM | 50 µM | 9.66 µM | > 100 µM | 7.07 µM | > 91.1 µM
NC(=Nc1ccc(N)cc1)C(N)=Nc1ccc(N)cc1 | 52.6 µM | > 100 µM | > 100 µM | > 100 µM | 77.6 µM | > 100 µM | 79.1 µM | > 100 µM | > 100 µM | > 100 µM | > 100 µM | > 100 µM | 69.1 µM | > 100 µM | 33.5 µM | > 100 µM | > 100 µM | > 100 µM | 33.3 µM | > 100 µM
Cc1cnc(Nc2ccc(N3CCN(C)CC3)cc2)nc1Nc1ccc(Cl)c(NS(=O)(=O)C(C)(C)C)c1 | 0.0621 µM | 2.09 µM | 0.219 µM | 13.4 µM | 0.159 µM | 2.23 µM | 0.154 µM | 2.66 µM | 0.17 µM | 1.59 µM | 0.23 µM | 2.09 µM | 0.652 µM | 8.1 µM | 0.0877 µM | 1.29 µM | 0.474 µM | 3.54 µM | 0.324 µM | 2.93 µM
CCOC(=O)c1ccc2c(c1)[n+](=O)c(C(C)=O)c(C(F)(F)F)n2[O-] | 1.39 µM | 2.94 µM | 1.56 µM | 3.22 µM | 1.75 µM | 3.62 µM | 1.46 µM | 3.42 µM | 1.4 µM | 2.86 µM | 1.8 µM | 3.93 µM | 2.42 µM | 9.25 µM | 1.49 µM | 3.15 µM | 1.49 µM | 2.93 µM | 1.49 µM | 2.93 µM
COc1cccc2c1C(=O)OC2c1cccc2ccccc12 (configuration not stated) |  | > 100 µM |  | > 100 µM |  | > 100 µM |  | > 100 µM |  | > 100 µM |  | > 100 µM |  | > 100 µM |  | > 100 µM |  | > 100 µM |  | > 100 µM
O=C(CC(=O)c1cccc(Cl)c1)c1cccc(Cl)c1 | 1.61 µM | 6.65 µM | 4.3 µM | > 100 µM | 2.67 µM | > 100 µM | 2.63 µM | > 100 µM | 1.95 µM | > 100 µM | 2.88 µM | > 100 µM | 2.6 µM | > 100 µM | 3.98 µM | > 100 µM | 2.76 µM | > 100 µM | 1.67 µM | 6.09 µM
Cc1cccc(NC(=O)/C=C/c2ccc([N+](=O)[O-])cc2)c1 |  | > 54.4 µM |  | > 57 µM |  | > 52.8 µM |  | > 53.7 µM |  | 50.7 µM |  | > 72 µM |  | > 53.7 µM |  | > 50.4 µM |  | > 76.8 µM |  | 27.6 µM
CCS(=O)(=O)c1ccc(OC)c(Nc2ncc(-c3ccccc3Cl)o2)c1 | 24.3 µM | > 25 µM | 10.9 µM | > 25 µM | 11.4 µM | > 25 µM | 14.4 µM | > 25 µM | 3.29 µM | 21.1 µM | 7.72 µM | > 25 µM | 9.9 µM | > 25 µM | 6.37 µM | > 25 µM | 11.7 µM | > 25 µM | 9.38 µM | > 25 µM
Cc1cn(-c2ccc(S(C)(=O)=O)cc2)c(-c2ccc(Cl)cc2)n1 | > 100 µM | > 100 µM | > 100 µM | > 100 µM | > 100 µM | > 100 µM | > 100 µM | > 100 µM | > 100 µM | > 100 µM | > 100 µM | > 100 µM | > 100 µM | > 100 µM | > 100 µM | > 100 µM | > 100 µM | > 100 µM | > 100 µM | > 100 µM
COc1ccc(C(CC(=O)c2ccccc2)C(C(=O)c2ccccc2)C(c2ccc(OC)cc2)C2C(=O)NC(=S)NC2=O)cc1 (configuration not stated) | 2.53 µM | 11.8 µM | 13.9 µM | 37.7 µM | 2.16 µM | 10.6 µM | 8.67 µM | 48.5 µM | 3.1 µM | 43.1 µM | 38.4 µM | > 100 µM | 13.5 µM | 45.6 µM | 7.32 µM | 26.1 µM | 9.99 µM | 55.5 µM | 4.96 µM | 24.8 µM
